Data as given in PMC5826148, “Whole-Cell Screen of Fragment Library Identifies Gut Microbiota Metabolite Indole Propionic Acid as Antitubercular” (Antimicrobial Agents and Chemotherapy, 2018).
In brackets after ≈: the same amount, converted by molar mass.

Key:
M. tuberculosis H37Rv [1] = assay: M. tuberculosis growth inhibition dose-response (MIC50), turbidity readout; type: cell-based, Mycobacterium tuberculosis; conditions: Mycobacterium tuberculosis, 240 h; H37Rv, 10 days; read-out: Antibacterial activity (MIC50) M. tuberculosis
M. tuberculosis H37Rv [2] = assay: Bactericidal activity, CFU enumeration on agar after treatment; type: cell-based, Mycobacterium tuberculosis; conditions: Mycobacterium tuberculosis, H37RV; M. tuberculosis; 1 mM; log CFU/ml reduction from initial inoculum; read-out: Bactericidal activity (log reduction) at 1 mM
M. tuberculosis = assay: Growth inhibition in acidic medium (pH 6.2); type: cell-based, Mycobacterium tuberculosis; conditions: Mycobacterium tuberculosis, pH 6.2; read-out: Activity (MIC50) in acidic medium (pH 6.2)
M. bovis BCG Pasteur = assay: microbe, parasite or virus in culture; type: cell-based; conditions: Mycobacterium tuberculosis variant bovis BCG, BCG, read-out: Antibacterial activity (MIC50) M. bovis BCG
M. smegmatis = assay: Spectrum of activity: M. smegmatis growth inhibition; type: cell-based; conditions: Mycolicibacterium smegmatis, 24 h; 1 day; read-out: Antibacterial activity (MIC50) M. smegmatis
M. avium = assay: Spectrum of activity: M. avium growth inhibition; type: cell-based; conditions: Mycobacterium avium, 96 h; 4 days; read-out: Antibacterial activity (MIC50) M. avium
M. abscessus = assay: Spectrum of activity: M. abscessus growth inhibition; type: cell-based; conditions: Mycobacteroides abscessus, 72 h; 3 days; read-out: Antibacterial activity (MIC50) M. abscessus
Staphylococcus aureus = assay: Spectrum of activity: S. aureus growth inhibition; type: cell-based; conditions: Staphylococcus aureus; LB medium, overnight; read-out: Antibacterial activity (MIC50) S. aureus
Escherichia coli = assay: Spectrum of activity: E. coli growth inhibition; type: cell-based; conditions: Escherichia coli; LB medium, overnight; read-out: Antibacterial activity (MIC50) E. coli
[3] = system: human red blood cells (RBCs); assay: Red blood cell lysis assay; conditions: hemolysis
[4] = Cytotoxicity assay, THP-1 cells (CellTiter 96 AQueous One); conditions: human
[5] = Cytotoxicity assay, HepG2 cells (CellTiter 96 AQueous One); conditions: human, HepG2 cells

## CCOC(=O)c1c(N)sc(C)c1-c1ccccc1 [Fragment F19, Ethyl 2-amino-5-methyl-4-phenylthiophene-3-carboxylate]
M. tuberculosis H37Rv [1]
  MIC50: 270 µM (≈ 70.6 µg/mL)
M. tuberculosis H37Rv [2]
  log reduction at 1000 µM: 1.98
M. tuberculosis
  MIC50: 117 µM (≈ 30.6 µg/mL)
M. bovis BCG Pasteur
  MIC50: 267 µM (≈ 69.8 µg/mL)
M. smegmatis
  MIC50: 491 µM (≈ 128 µg/mL)
M. avium
  MIC50: 214 µM (≈ 55.9 µg/mL)
M. abscessus
  MIC50: 206 µM (≈ 53.8 µg/mL)
Staphylococcus aureus
  MIC50: 344 µM (≈ 89.9 µg/mL)
Escherichia coli
  MIC50: > 500 µM
[3]
  RBCs HC50: 453 µM
[4]
  CC50 at 24 h: 247 µM
[5]
  CC50 at 24 h: 233 µM

## CNCc1ccccc1Oc1ccccc1 [Fragment F23, Methyl[(2-phenoxyphenyl)methyl]amine]
M. tuberculosis H37Rv [1]
  MIC50: 305 µM (≈ 65.1 µg/mL)
M. tuberculosis H37Rv [2]
  log reduction at 1000 µM: 1.22
M. tuberculosis
  MIC50: > 500 µM
M. bovis BCG Pasteur
  MIC50: 347 µM (≈ 74 µg/mL)
M. smegmatis
  MIC50: > 500 µM
M. avium
  MIC50: > 500 µM
M. abscessus
  MIC50: > 500 µM
Staphylococcus aureus
  MIC50: > 500 µM
Escherichia coli
  MIC50: > 500 µM
[3]
  RBCs HC50: >1,000 μM
[4]
  CC50 at 24 h: 976 µM
[5]
  CC50 at 24 h: 789 µM

## Oc1noc2cc(Cl)ccc12 [Fragment F27, 6-Chlorobenzo[d]isoxazol-3-ol]
M. tuberculosis H37Rv [1]
  MIC50: 395 µM (≈ 67 µg/mL)
M. tuberculosis H37Rv [2]
  log reduction at 1000 µM: 1.05
M. tuberculosis
  MIC50: 210 µM (≈ 35.6 µg/mL)
M. bovis BCG Pasteur
  MIC50: > 500 µM
M. smegmatis
  MIC50: > 500 µM
M. avium
  MIC50: > 500 µM
M. abscessus
  MIC50: > 500 µM
Staphylococcus aureus
  MIC50: > 500 µM
Escherichia coli
  MIC50: > 500 µM
[3]
  RBCs HC50: >1,000 μM
[4]
  CC50 at 24 h: 777 µM
[5]
  CC50 at 24 h: > 1000 µM

## COC(=O)c1cc2ccccc2cn1 [Fragment F4, Methyl isoquinoline-3-carboxylate]
M. tuberculosis H37Rv [1]
  MIC50: 175 µM (≈ 32.8 µg/mL)
M. tuberculosis H37Rv [2]
  log reduction at 1000 µM: 1.98
M. tuberculosis
  MIC50: 158 µM (≈ 29.6 µg/mL)
M. bovis BCG Pasteur
  MIC50: 143 µM (≈ 26.8 µg/mL)
M. smegmatis
  MIC50: 389 µM (≈ 72.8 µg/mL)
M. avium
  MIC50: 344 µM (≈ 64.4 µg/mL)
M. abscessus
  MIC50: > 500 µM
Staphylococcus aureus
  MIC50: > 500 µM
Escherichia coli
  MIC50: > 500 µM
[3]
  RBCs HC50: >1,000 μM
[4]
  CC50 at 24 h: > 1000 µM
[5]
  CC50 at 24 h: > 1000 µM

## Cc1n[nH]c(C)c1Oc1ccc(Cl)cc1 [Fragment F15, 4-(4-Chlorophenoxy)-3,5-dimethyl-1H-pyrazole]
M. tuberculosis H37Rv [1]
  MIC50: 235 µM (≈ 52.3 µg/mL)
M. tuberculosis H37Rv [2]
  log reduction at 1000 µM: 2.43
M. tuberculosis
  MIC50: 157 µM (≈ 35 µg/mL)
M. bovis BCG Pasteur
  MIC50: 156 µM (≈ 34.7 µg/mL)
M. smegmatis
  MIC50: 198 µM (≈ 44.1 µg/mL)
M. avium
  MIC50: 174 µM (≈ 38.7 µg/mL)
M. abscessus
  MIC50: 256 µM (≈ 57 µg/mL)
Staphylococcus aureus
  MIC50: 79 µM (≈ 17.6 µg/mL)
Escherichia coli
  MIC50: > 500 µM
[3]
  RBCs HC50: 453 µM
[4]
  CC50 at 24 h: 345 µM
[5]
  CC50 at 24 h: 676 µM
